In PubChem BioAssay (NCI) one finds TGI data, which are given here for 32 molecules.

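These data come from cells grown in 96-well plates and exposed to compound for 48 hours at five concentrations. TGI: concentration producing complete growth inhibition.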

Test in all cases: DTP human tumour cell line panel, 48 h
The test system of assay [1] is DU-145 prostate.
The test system of assay [2] is SF-268 CNS.
Assay [3] relates to M14 melanoma.
Assay [4] has as its system SK-MEL-28 melanoma.
Assay [5] concerns 786-0 renal.
Assay [6] deals with KM12 colon.
Assay [7] deals with OVCAR-8 ovarian.
For assay [8], the system named is HCT-15 colon.
Assay [9] concerns SK-OV-3 ovarian.
In assay [10] the test system is HL-60(TB) leukemia.

Broadly, the TGI is the concentration at which net growth stops. Lower therefore signals greater sensitivity of the cells. `Cc1cc2ccccc2c[n+]1CC(O)C[n+]1cc2ccccc2cc1C`: the total growth inhibition concentration (TGI) in assay [1], in assay [2], in assay [3], in [4], in [5] and in assay [6] was over 100 µM throughout. Also, the TGI in assay [7] and in assay [8] was over 100 µM in each case.
Consider `Cc1cc(C)c(S(=O)(=O)N(CCCCN)OCCCN)c(C)c1`, for which the TGI in assay [9] came to 31.8 µM; in assay [1], 29.4 µM; in [2], 34.3 µM; in assay [3], 35.9 µM; in assay [4] it was 32.4 µM; in assay [6], 35 µM. Besides, in assay [7], the TGI came out at 32.8 µM.
Take `CC(C)(C)N=C1CC(C)(C)c2ccccc2C(=Nc2ccccc2)S1`: the TGI is over 100 µM in assay [9]; over 100 µM in [2]; 36 µM in assay [10]; over 100 µM in assay [3]; over 100 µM in [4]; over 100 µM in assay [5]. Moreover, the TGI in assay [6], in [7] and in assay [8] was over 100 µM in each case.
With `COC(=O)C(/C(=N/NC(=O)c1ccncc1)C(=O)Nc1ccccc1OC)c1nc2ccc(Cl)cc2[nH]c1=O` (stereo not given), the concentration for total growth inhibition (TGI) in assay [9], in assay [2], in [10], in assay [3], in [4] and in assay [5] was over 100 µM each time. For the same molecule, the TGI in assay [6], in assay [7] and in assay [8] was over 100 µM each time.
Regarding `CC(=O)NC1C(CO)O[C@@H]2OC(C)(C)O[C@H]12` (stereo not given in full), the TGI in [2], in assay [10], in assay [3], in [4], in assay [5] and in assay [6] was over 100 µM in each case. The TGI in [7] and in assay [8] was over 100 µM in each case.
`c1ccc(CCN2CCCCCC2)nc1`: the TGI in assay [9], in assay [1], in assay [2], in [3], in assay [4] and in assay [5] was over 100 µM throughout. The total growth inhibition concentration (TGI) in [6], in [7] and in [8] was over 100 µM throughout.
As to `COc1ccc(C2OC(=O)c3c2ccc2ccccc32)c(C)c1` (stereo not given), the TGI in assay [10] is 5.38 µM; in [3], over 100 µM; in assay [4], over 100 µM; in assay [5], 18.1 µM; in [6], over 100 µM; in [7] it was over 100 µM. In addition, the concentration for total growth inhibition (TGI) in assay [8] was 19.9 µM.
With `COC(=O)[C@H](C)N1C(=O)N[C@@H](C(C)C)C1=O`, the TGI in assay [9], in assay [1], in assay [3], in [4], in assay [5] and in [6] was over 100 µM in each case. The TGI in assay [7] and in assay [8] was over 100 µM in each case.
Consider `O=C(/C=C/c1ccc(-c2ccccc2[N+](=O)[O-])o1)NCc1ccc(C(=O)NCCc2ccccc2)cc1`, for which the concentration for total growth inhibition (TGI) in assay [9], in assay [1], in [2], in assay [3], in assay [4] and in assay [5] was over 100 µM each time. The TGI in assay [6], in assay [7] and in assay [8] was over 100 µM each time.
`COc1cccc(NC(=O)CSc2nnc(-c3ccc(N=Cc4ccc(Cl)cc4)cc3)o2)c1`: the total growth inhibition concentration (TGI) in assay [9] was over 100 µM; in [2] it was 46.3 µM; in assay [10] it was 87.8 µM; in assay [3], 47 µM; in [4], 37.5 µM; in [5], 57.5 µM. In addition, the TGI in assay [6] worked out at 31.3 µM; in assay [7] it was 58.4 µM; in [8], 33.8 µM.
Turning to `COc1cc2cc(C(=O)N3CC(CCl)c4c3cc(N)c3ccccc43)[nH]c2cc1OCCN(C)C` (stereo not given), the TGI is 0.881 µM in assay [9]; 0.0246 µM in [1]; 0.712 µM in assay [2]; 0.00977 µM in [3]; 0.0116 µM in assay [6]; 0.0571 µM in [7]. Moreover, the TGI in [8] is 5.45 µM.
As for `CN1CCn2c(Br)ccc2C1=O`, the TGI in assay [2], in [10], in assay [3], in assay [4], in [5] and in assay [6] was over 100 µM in each case. Also, the total growth inhibition concentration (TGI) in assay [7] and in assay [8] was over 100 µM throughout.
`O=S1(=O)NNC(=NCc2ccc(Cl)cc2)c2ccccc21`: the TGI in assay [2], in assay [10], in assay [3], in assay [5], in assay [6] and in assay [7] was over 100 µM in each case. In assay [8], this molecule registered a total growth inhibition concentration (TGI) of over 100 µM.
`COc1cc([C@@H]2c3cc4c(cc3[C@@H](NC(=O)c3ccc(N)cc3)C3COC(=O)[C@@H]32)OCO4)cc(OC)c1O` (stereo not given in full): the TGI in assay [9] is 8.06 µM; in assay [2], over 100 µM; in assay [10], 4.35 µM; in assay [3] it was over 100 µM; in assay [4], 50.8 µM; in assay [5] it was 3.84 µM. Also, the TGI stood at 13.8 µM in assay [6], 16.3 µM in assay [7] and 32 µM in assay [8].
`O=c1[nH]c(=O)n(C2OC(COP(=O)(O)OP(=O)(O)O)C(O)C2O)cc1F` (stereo not given): the TGI in assay [9] was 47.8 µM; in assay [2] it was over 50 µM; in assay [10], over 50 µM; in assay [3], over 50 µM; in [4], over 50 µM; in assay [5], 7.09 µM. The TGI in assay [6], in assay [7] and in assay [8] was over 50 µM throughout.
Take `CCCCc1c2c(nc3c1CCc1cc4c(nc1-3)-c1nc3c(c(CCCC)c1CC4)CCC/C3=C\c1ccccc1)/C(=C/c1ccccc1)CCC2`: the TGI in [9], in assay [2], in [10], in assay [3], in assay [4] and in assay [5] was over 100 µM in each case. Besides, the TGI in assay [6], in assay [7] and in assay [8] was over 100 µM each time.
For the molecule `CC1=CC(O)C(O)C2(C)C1CC1OC(=O)C(O)C3C(C)C(O)C4(O)OCC13C42` (stereo not given), the TGI in assay [9] was 359 µM; in assay [2] it was 444 µM; in assay [10] it was 189 µM; in assay [4], 502 µM; in [6], 389 µM; in assay [7], over 570 µM. In assay [8], the TGI was over 625 µM.
Turning to `COP(=O)(OC)C(N)CCSC` (stereo not given), the TGI in assay [9], in assay [2], in assay [10], in assay [3], in [4] and in assay [5] was over 100 µM each time. The TGI in [6], in assay [7] and in assay [8] was over 100 µM throughout.
In the case of `COC(=O)c1ccc(-c2nc(C#N)c(N)o2)cc1`, the TGI in assay [9], in [1], in assay [2], in assay [3], in assay [4] and in [5] was over 100 µM throughout. For the same molecule, the TGI in assay [6], in assay [7] and in assay [8] was over 100 µM each time.
Regarding `CC(C)(CO)CNc1nc(N)nc(Cl)c1N`, the TGI in assay [9], in [1], in [2], in [4], in assay [5] and in [6] was over 100 µM throughout. Besides, the TGI in [7] and in assay [8] was over 100 µM each time.
As for `Cc1cccc(NC(=O)C(=O)C2C(=O)NC(=O)NC2=O)c1C`, the TGI in [9], in assay [2], in assay [10], in assay [3], in assay [4] and in assay [5] was over 100 µM in each case. Besides, the TGI in assay [6], in [7] and in [8] was over 100 µM each time.
Consider `C/C(O)=C(\C=N\C(N)=S)C(=O)Nc1ccccc1C`, for which the TGI in assay [9], in [1], in [2], in assay [3], in assay [4] and in assay [5] was over 100 µM throughout. The TGI in [6], in assay [7] and in assay [8] was over 100 µM throughout.
In the case of `O=C(N/N=C(/c1nc2ccc(Cl)cc2[nH]c1=O)C(O)c1ccc(Cl)cc1Cl)c1ccncc1` (stereo not given), the concentration for total growth inhibition (TGI) in assay [9], in assay [2], in [10], in assay [3], in [4] and in assay [5] was over 100 µM throughout. Further, the TGI in assay [6], in [7] and in assay [8] was over 100 µM each time.
Take `COc1cc(C2C3=C(CCC3=O)Oc3cc4c(cc32)OCO4)cc(OC)c1OC` (stereo not given): the TGI in assay [9] is over 100 µM; in [10], 0.596 µM; in [3], over 100 µM; in [4], over 100 µM; in [7], over 100 µM; in assay [8], over 100 µM.
On to `COc1ccc(/C=C2\Cc3ccccc3C2=O)cc1OC`, for which the TGI in [9], in assay [2], in [3], in [4], in assay [5] and in [6] was over 100 µM each time. In addition, the TGI in assay [7] and in [8] was over 100 µM each time.
As for `NC(Cc1cc(I)c(O)c(I)c1)C(=O)O` (stereo not given), the total growth inhibition concentration (TGI) in assay [9], in assay [2], in [10], in assay [4], in assay [6] and in assay [7] was over 500 µM in each case. The molecule also yielded a TGI in [8] of over 362 µM.
On to `CN(C)CCOC(=O)COc1ccc(Cl)cc1`, for which the TGI in assay [9], in assay [1], in [2], in assay [3], in [4] and in assay [5] was over 100 µM each time. Further, the TGI in [6], in [7] and in assay [8] was over 100 µM each time.
With `COC(=O)c1sc(=S)sc1SCc1ccccc1CSc1sc(=S)sc1C(=O)OC`, the TGI in assay [9], in assay [1], in assay [2], in assay [3], in assay [4] and in assay [5] was over 100 µM in each case. Moreover, the TGI in assay [6], in assay [7] and in [8] was over 100 µM throughout.
In the case of `COc1ccc(C2(c3ccc(OC)cc3)OC(=O)c3cccc4cccc2c34)cc1`, the TGI in [9], in assay [1], in assay [2], in assay [3], in assay [5] and in [6] was over 100 µM throughout. Besides, the TGI in [7] and in [8] was over 100 µM each time.
Regarding `Cc1nc(C)c(C(=O)Nc2cccc3c2C(=O)NC3=O)cc1C(=O)Nc1cccc2c1C(=O)NC2=O`, the TGI in assay [9], in [2], in assay [10], in [3], in assay [4] and in assay [5] was over 100 µM throughout. Besides, the total growth inhibition concentration (TGI) in assay [6], in [7] and in assay [8] was over 100 µM throughout.
Regarding `CC1(O)C=CC2CCC1C2O` (stereo not given), the total growth inhibition concentration (TGI) in [9] is over 100 µM; in assay [2] it was 93.7 µM; in assay [10] it was over 100 µM; in assay [3], over 100 µM; in assay [4] it was over 100 µM; in assay [5], 75.5 µM. Further, the TGI in assay [6], in [7] and in assay [8] was over 100 µM throughout.
Take `CN=C(Nn1cnnc1)OC`: the TGI in [9], in assay [1], in [3], in [4], in [5] and in assay [6] was over 100 µM throughout. Moreover, the TGI in assay [7] and in [8] was over 100 µM throughout.
